Laboratory results published in patent US20250295639A1, “METHODS FOR TREATING HEART DISEASES” (Cytokinetics, Incorporated, priority 2024, published 2025).
Several values for one entry are separate records, joined by “and”; a condition that tells them apart may be missing. Equal entries are not always repeated.

System: patients with symptomatic oHCM
Test: SEQUOIA-HCM: cardiopulmonary exercise testing (CPET), incl. by baseline beta blocker use
Format: in vivo, human
Excerpt: The primary objective of this trial was to evaluate the effect of aficamten on exercise capacity in patients with symptomatic oHCM. The indicated endpoint was a change in peak oxygen uptake (pVO2) by cardiopulmonary exercise testing (CPET) from baseline to Week 24. A further secondary objective was to evaluate the effect of aficamten on exercise capacity, as determined by change in total workload during CPET from baseline to Week 24. A further exploratory objective of this trial was to evaluate the effect of aficamten on other CPET parameters, as determined by changes from baseline to Week 24 in: (1) ventilator efficiency (VE/VCO2 slope); (2) circulatory power (VO2× systolic BP); and (3) ventilator anaerobic threshold (VAT). Cardiopulmonary Exercise Testing (CPET). All patients underwent CPET with gas-exchange analysis and the methodology will be standardized across all participating sites, as described in the CPET manual. Testing included continuous ECG monitoring by trained personnel and was performed in an area that was equipped for cardiopulmonary resuscitation. Treadmill was the preferred modality for exercise testing. […] Exercise protocols for both modalities were provided in the CPET manual. Patients had to use the same testing modality for all exercise tests during the trial. Whenever possible, CPET was administered by the same trial personnel using the same equipment and performed after the other trial procedures on that visit day (including echocardiogram, KCCQ, EQ-5D-5L, CGI, PGI-C, NYHA class, SAQ-7, vital signs, ECG, blood sampling, IP administration). Patients naïve to exercise protocols were familiarized with the technique during screening. All CPET testing was symptom-limited and patients were strongly encouraged to achieve maximal exertion and an RER ≥1.05. The reason(s) for termination of sub-maximal exercise tests were documented. A test was identified as being maximal effort if the RER is ≥1.05. The Week 24 CPET was performed at approximately the same time of day (eg, morning, mid-day, afternoon) as the baseline CPET at screening, at a consistent time after the last dose of beta blocker and IP. Whenever possible, patients performed exercise testing between three and ten hours after taking beta blocking agents. CPET End Points. We looked at whether aficamten would improve a novel measure of integrated exercise performance that combines complementary measures previously independently related to oHCM prognosis, and that incorporates both submaximal and maximal exercise capacity. A primary outcome was the change from baseline to week 24 in integrated exercise performance, defined as the 2-component Z-score of pVO2 and ventilatory efficiency (VE/VCO2 slope). Response rates for achieving clinically meaningful thresholds for change in pVO2 and correlations with clinical measures of treatment effect (health status, echocardiographic, cardiac biomarkers) were also assessed. The primary analysis was the change from baseline to Week 24 in integrated exercise performance, normalized to a composite of Z-scores for pVO2 and VE/VCO2 slope to capture physiologic responses to maximal and submaximal exercise. The Z-score was derived by reversing the directionality of VE/VCO2 slope such that increases in both Z-score components indicate benefit and equal weights were used for each Z-score component. Secondary end points included assessments for changes from baseline to week 24 in CPET-derived measures during 2 phases of exercise performance: (1) peak exercise (pVO2, peak workload, peak metabolic equivalents [METS], peak circulatory power [VO2× systolic blood pressure], exercise duration, peak respiratory exchange ratio [RER], heart rate reserve, peak heart rate, O2 pulse at peak exercise, proportionate pulse pressure); and (2) during submaximal exercise (pre-anaerobic threshold VE/VCO2 slope, VE/VCO2 slope throughout exercise, ventilatory power, ventilatory anaerobic threshold, and aerobic efficiency). Beta Blocker Co-administration. […]

[1] = Baseline Beta Blocker Use: Yes, Baseline
[2] = Baseline Beta Blocker Use: Yes, Week 24
[3] = aficamten versus placebo, 24 weeks
[4] = patients treated with aficamten

CCc1nc(-c2ccc3c(c2)CC[C@H]3NC(=O)c2cnn(C)c2)no1 [aficamten, (R)—N-(5-(5-ethyl-1,2,4-oxadiazol-3-yl)-2,3-dihydro-1H-inden-1-yl)-1-methyl-1H-pyrazole-4-carboxamide]
peak METs (pVO2/3.5 (mL/kg/min)) on CPET, Week 24, Median (Baseline Beta Blocker Use: No, Week 24): 5.66 METs | Change in Exercise Duration on CPET from Baseline to Week 24, LS Mean (SE) (Baseline Beta Blocker Use: Yes): 1.0 (0.22) minutes | Change in Exercise Duration on CPET from Baseline to Week 24, LS Mean Diff vs. Placebo (SE) (Baseline Beta Blocker Use: Yes): 0.9 (0.30) minutes | Change in Exercise Duration on CPET from Baseline to Week 24, Mean (SD) (Baseline Beta Blocker Use: Yes): 1.1 (1.98) minutes | Change in Exercise Duration on CPET from Baseline to Week 24, Median (Baseline Beta Blocker Use: Yes): 0.5 min | Change in peak METs from Baseline to Week 24, LS Mean (SE) (Baseline Beta Blocker Use: Yes): 0.40 (0.093) METs | Change in peak METs from Baseline to Week 24, LS Mean Diff vs. Placebo (SE) (Baseline Beta Blocker Use: Yes): 0.46 (0.130) METs | Change in peak METs from Baseline to Week 24, Mean (SD) (Baseline Beta Blocker Use: Yes): 0.41 (0.781) METs | Change in peak METs from Baseline to Week 24, Median (Baseline Beta Blocker Use: Yes): 0.31 METs | Exercise Duration on CPET, Baseline, Mean (SD) [1]: 11.4 (2.55) minutes | Exercise Duration on CPET, Baseline, Median [1]: 11.1 min | peak METs (pVO2/3.5 (mL/kg/min)) on CPET, Baseline, Mean (SD) [1]: 5.24 (1.251) METs | peak METs (pVO2/3.5 (mL/kg/min)) on CPET, Baseline, Median [1]: 5.28 METs | Exercise Duration on CPET, Week 24, Mean (SD) [2]: 12.5 (3.61) minutes | Exercise Duration on CPET, Week 24, Median [2]: 12.4 min | peak METs (pVO2/3.5 (mL/kg/min)) on CPET, Week 24, Mean (SD) [2]: 5.70 (1.497) METs | peak METs (pVO2/3.5 (mL/kg/min)) on CPET, Week 24, Median [2]: 5.64 METs | patients with large pVO2 deteriorations/reductions (≥3.0 mL/kg/min) (aficamten group, 24 weeks): 2% | Any Deterioration in pVO2, NNT [3]: −3.8 | Any Deterioration in pVO2, OR [3]: 0.32 | Any Deterioration in pVO2, Risk Difference [3]: −26% | Any Improvement in pVO2, NNT [3]: 3.8 and < 4 | Any Improvement in pVO2, OR [3]: 3.09 | Any Improvement in pVO2, Risk Difference [3]: +26% | Large Improvement in pVO2, NNT [3]: 6.3 | Large Improvement in pVO2, OR [3]: 2.44 | Large Improvement in pVO2, Risk Difference [3]: +15.% | Moderate/Large Improvement in pVO2, NNT [3]: 4.7 | Moderate/Large Improvement in pVO2, OR [3]: 2.44 | Moderate/Large Improvement in pVO2, Risk Difference [3]: +21% | Any Improvement in pVO2, NNT (aficamten versus placebo, 24 weeks, listed as Aficamten): 3.8 | Aerobic efficiency, Adjusted difference (LS mean treatment difference) (aficamten vs placebo, week 24): 0.2 mL/min/watt | Exercise duration, Adjusted difference (LS mean treatment difference) (aficamten vs placebo, week 24): 1.0 min | Heart rate reserve, Adjusted difference (LS mean treatment difference) (aficamten vs placebo, week 24): 6 | Integrated 2 component Z-score metric, Adjusted difference (LS mean treatment difference) (aficamten vs placebo, week 24): +0.35 | O2 pulse at peak exercise, Adjusted difference (LS mean treatment difference) (aficamten vs placebo, week 24): 0.003 mL/beat | Peak circulatory power, Adjusted difference (LS mean treatment difference) (aficamten vs placebo, week 24): 586 mmHg*mL/min/kg | Peak heart rate, Adjusted difference (LS mean treatment difference) (aficamten vs placebo, week 24): 9 beats/min | Peak respiratory exchange ratio, Adjusted difference (LS mean treatment difference) (aficamten vs placebo, week 24): 0.00 | Peak workload, Adjusted difference (LS mean treatment difference) (aficamten vs placebo, week 24): 12 watt | Proportionate pulse pressure (peak), Adjusted difference (LS mean treatment difference) (aficamten vs placebo, week 24): 0.01 | Proportionate pulse pressure (rest), Adjusted difference (LS mean treatment difference) (aficamten vs placebo, week 24): −0.01 | Ventilatory anaerobic threshold, Adjusted difference (LS mean treatment difference) (aficamten vs placebo, week 24): 59 mL | Ventilatory efficiency pre-anaerobic threshold (VE/VCO2 slope), Adjusted difference (LS mean treatment difference) (aficamten vs placebo, week 24): −1.5 | Ventilatory efficiency throughout exercise (VE/VCO2 slope), Adjusted difference (LS mean treatment difference) (aficamten vs placebo, week 24): −2.3 | Ventilatory power, Adjusted difference (LS mean treatment difference) (aficamten vs placebo, week 24): 0.9 mmHg | pVO2, Adjusted difference (LS mean treatment difference) (aficamten vs placebo, week 24): 1.7 mL/kg/min | Integrated 2 component Z-score metric, Adjusted difference (LS mean treatment difference) (aficamten vs placebo, week 24, listed as Aficamten): 0.35 | improvement in Exercise Duration on CPET: influence of beta blockers (baseline to Week 24): not significantly diminished by the use of beta blockers | improvement in peak metabolic equivalents (peak METs) on CPET: influence of beta blockers (baseline to Week 24): not significantly diminished by the use of beta blockers | times less likely to experience worsening of pVO2 than those on placebo (categorical threshold analyses): more than 5 times | patients who experienced an improvement in pVO2 [4]: 72.2% | patients with large improvement (≥3.0 mL/kg/min) in pVO2 [4]: 27.8% | patients with moderate improvement (≥1.5 to <3.0 mL/kg/min) in pVO2 [4]: 21.8% | patients with small improvement (0 to <1.5) in pVO2 [4]: 22.6% | LSM difference in pVO2 (95% CI) (patients who were also on beta blockers): 1.6 (0.7 to 2.5) mL/kg/min | LSM difference in pVO2 (95% CI) (patients who were not on beta blockers): 1.9 (0.8 to 3.1) mL/kg/min
